The source of these data is patent publication EP0960190B1, “IMI[…] RESISTANT SUGAR BEET PLANTS” (Michigan State University, priority 1996, dated 1998).

One assay deals with Rel-1. As to the kind of experiment: Whole plant sugarbeet response to postemergence ALS-inhibiting herbicides. To be noted: Rel-1 whole plant, herbicide applied postemergence. It counts as in vivo, Beta vulgaris L.
Another assay has as its system ALS extracts from 93R30B. The assay can be described thus: ALS enzyme activity assay in leaf extracts (acetoin colorimetry). It is filed as biochemical, Beta vulgaris L. The procedure:
Standard procedures were utilized to partially purify ALS from rapidly expanding leaves of greenhouse-grown sugar beet plants (Hart, et al. Weed Science 40:378-383 (1992)). Extracts from heterozygous 93R30B F1 plants and Rel-1 S1 seed were assayed for ALS activity in the presence of logarithmically increasing concentrations of imazethapyr. ALS activity was determined from leaf extracts of REL-1 and 93R30B sugarbeet lines. Plants were grown in the greenhouse as described above to the four to six leaf stage. ALS activity from fresh extracts was determined in the presence of imazethapyr and chlorsulfuron at logarithmically increasing concentrations. The methods and procedures used were modified from those outlined by Ray (Plant Physiol. 75:827-831 (1984)) and Shaner, et al. (Plant Physiol. 76:545-546 (1984)). Ten g of sugarbeet leaves were homogenized in 40 ml cold homogenization buffer (0.1 M K2HPO4, pH 7.5, 1 mM sodium pyruvate, 0.5 mM MgCl2, 0.5 mM thiamine pyrophosphate, 10 µM of flavin adenine dinucleotide, 10% by vol glycerol) plus 2.5 g polyvinylpolypyrolidone. The homogenate was filtered through eight layers of cheesecloth and centrifuged at 27,000 g for 20 minutes. The supernatant was removed and brought to 50% saturation with (NH4)2SO4. […]
(§1) ALS activity is measured by adding 0.2 ml of enzyme preparation (diluted 3:1 with resuspension buffer) to 1.3 ml of reaction buffer (25 mM K2HPO4, pH 7.0, 0.625 mM MgCl2, 25 mM sodium pyruvate, 0.625 mM thiamine pyrophosphate, 1.25 µM flavin adenine dinucleotide) and incubated at 35°C for 1 hour. […]
Purchased acetoin was used as a standard for the colorimetric reaction. Acetoin concentrations were determined by measuring the absorption of the reaction solution at 530 nm. […] Protein concentrations of the extracts was determined by the method of Bradford (Anal. Biochem. 72:248-254 (1976)) using bovine serum albumin for the standard curve. […]

In another assay the test system is Sir-13. As to the kind of experiment: Whole plant sugarbeet response to postemergence ALS-inhibiting herbicides. It counts as in vivo, Beta vulgaris L.
The subject of the next assay is ALS enzyme from Sur. The assay can be described thus: ALS enzyme activity assay in leaf extracts (acetoin colorimetry). It counts as biochemical, Beta vulgaris L. To be noted: Sur single mutant ALS enzyme in vitro. The procedure: Standard procedures were utilized to partially purify ALS from rapidly expanding leaves of greenhouse-grown sugar beet plants (Hart, et al. Weed Science 40:378-383 (1992)). Extracts from heterozygous 93R30B F1 plants and Rel-1 S1 seed were assayed for ALS activity in the presence of logarithmically increasing concentrations of imazethapyr. ALS activity was determined from leaf extracts of REL-1 and 93R30B sugarbeet lines. Plants were grown in the greenhouse as described above to the four to six leaf stage. ALS activity from fresh extracts was determined in the presence of imazethapyr and chlorsulfuron at logarithmically increasing concentrations. […]
as §1
Purchased acetoin was used as a standard for the colorimetric reaction. Acetoin concentrations were determined by measuring the absorption of the reaction solution at 530 nm. […] Protein concentrations of the extracts was determined by the method of Bradford (Anal. Biochem. 72:248-254 (1976)) using bovine serum albumin for the standard curve.

A further assay concerns 93R30B. As to the kind of experiment: Whole plant sugarbeet response to postemergence ALS-inhibiting herbicides. It counts as in vivo, Beta vulgaris L.
In a further assay the test system is Sur. The description is as above. It is filed as in vivo, Beta vulgaris L.

Molecules are shown by their SMILES.

`CCc1cnc(C2=NC(C)(C(C)C)C(=O)N2)c(C(=O)O)c1` (stereo not shown) [Imazethapyr] showed an I50 with Rel-1 of 0.5 g ha^-1. Also, the “resistance of the ALS enzyme” value in the assay on ALS extracts from 93R30B (SB double mutant ALS enzyme in vitro) is listed as > 1000 X; in the assay with ALS enzyme from Sur it was 1 X. The “level of resistance at the enzyme level” value in the assay on ALS extracts from 93R30B (ratio of I50's for the resistant (93R30B, heterozygous F1) and sensitive (Rel-1) lines) is 1750 fold. The resistance in the assay with Sir-13 (Sir-13 single mutant, postemergence to whole plants) was 100 fold; with 93R30B (SB double mutant, postemergence to whole plants), 300 fold; in the assay on Sur (Sur single mutant, postemergence to whole plants), 3 fold. Further, the R/S with Sir-13 (Sir-13 whole plant, postemergence, relative to Rel-1) turned out to be 100 X; in the assay on 93R30B (93R30B (SB) whole plant, postemergence, relative to Rel-1), 300 X; in the assay on Sur (Sur whole plant, postemergence, relative to Rel-1), 3 X.
